Assay results reported in patent US20210277020A1, “HETEROCYCLIC COMPOUNDS AS MONOACYLGLYCEROL LIPASE INHIBITORS” (Hoffmann-La Roche Inc., priority 2018, published 2021).

biological target: T1, MAGL (Homo sapiens, UniProt Q99685); assay: 2-AG assay: MAGL inhibition followed by hydrolysis of 2-arachidonoylglycerol to arachidonic acid, mass spectrometry; format: biochemical; details: measured in 2-AG assay (footnote [a]); substrate 2-arachidonoylglycerol 8 μM, 30 min at RT
T1 sequence (Q99685 1-303): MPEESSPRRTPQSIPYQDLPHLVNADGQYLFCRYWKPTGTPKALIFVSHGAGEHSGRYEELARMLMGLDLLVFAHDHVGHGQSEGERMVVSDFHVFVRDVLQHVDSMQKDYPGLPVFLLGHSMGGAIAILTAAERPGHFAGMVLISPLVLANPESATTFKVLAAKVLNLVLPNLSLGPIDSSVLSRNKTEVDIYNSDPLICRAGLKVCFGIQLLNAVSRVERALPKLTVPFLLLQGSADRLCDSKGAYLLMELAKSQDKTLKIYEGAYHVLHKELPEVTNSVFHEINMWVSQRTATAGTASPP
Description: Alternatively, compounds were profiled for MAGL inhibitory activity by determining the enzymatic activity by following the hydrolysis of the natural substrate, 2-arachidonoylglycerol, resulting in arachidonic acid, which can be followed by mass spectrometry. This assay is hereinafter abbreviated “2-AG assay”.
Detection by mass spectrometry in the present 2-AG assay has the advantage over known optical assays that the natural enzyme substrate, 2-arachidonoylglycerol, can be used instead of structurally unrelated compounds needed for optical readouts (such as 4-NPA). It thereby delivers more relevant data for activity determination, reduces false positives and generally adds to data quality. In addition, this assay reduces the analysis time from about 10 minutes per sample with standard methods to under 10 seconds per sample. This allows for using the present 2-AG assay in a method for high throughput screening of compounds for their MAGL inhibitory activity.
The 2-AG assay was carried out in 384 well assay plates (PP, Greiner Cat #784201) in a total volume of 20 μL. Compound dilutions were made in 100% DMSO (VWR Chemicals 23500.297) in a polypropylene plate in 3-fold dilution steps to give a final concentration range in the assay from 12.5 μM to […]. 0.25 μL compound dilutions (100% DMSO) were added to 9 μL MAGL in assay buffer (50 mM TRIS (GIBCO, 15567-027), 1 mM EDTA (Fluka, 03690-100 mL), 0.01% (v/v) Tween. After shaking, the plate was incubated for 15 min at RT. To start the reaction, 10 μL 2-arachidonoylglycerol in assay buffer was added. The final concentrations in the assay was […] and 8 μM 2-arachidonoylglyerol. After shaking and 30 min incubation at RT, the reaction was quenched by the addition of 40 μL of acetonitrile containing 4 μM of d8-arachidonic acid. The amount of arachidonic acid was traced by an online SPE system (Agilent Rapidfire) coupled to a triple quadrupole mass spectrometer (Agilent 6460). A C18 SPE cartridge (G9205A) was used in an acetonitrile/water liquid setup. The mass spectrometer was operated in negative electrospray mode following the mass transitions 303.1→259.1 for arachidonic acid and 311.1→267.0 for d8-arachidonic acid. The activity of the compounds was calculated based on the ratio of intensities [arachidonic acid/d8-arachidonic acid].
In a preferred embodiment, the method for determining the MAGL inhibitory activity of a test compound according to the invention, comprises: • (i) providing a solution of a test compound; • (ii) adding the solution of step (i) to a solution of MAGL; • (iii) shaking the mixture obtained from step (ii); • (iv) incubating the mixture obtained from step (iii); • (v) adding a solution of 2-arachidonoylglycerol; • (vi) incubating the mixture obtained from step (v); • (vii) adding a solution of d8-arachidonic acid; and • (viii) determining the ratio of intensities arachidonic acid/d8-arachidonic acid using a mass spectrometer.

| Structure (SMILES) | IC50 |
| --- | --- |
| O=C1CO[C@H]2CCN(C(=O)N3CCC(C#Cc4ccccc4Cl)CC3)C[C@H]2N1 [Example 125, (+)-(4aR,8aS)-6-[4-[2-(2-Chlorophenyl)ethynyl]piperidine-1-carbonyl]-4,4a,5,7,8,8a-hexahydropyrido[4,3-b][1,4]oxazin-3-one] | 0.03 µM |
| CN(c1ccc(C(F)(F)F)cc1)C1CCN(C(=O)N2CC[C@@H]3OCC(=O)N[C@@H]3C2)CC1 (racemic) [Example 136, rac-(4aR,8aS)-6-[4-[N-methyl-4-(trifluoromethyl)anilino]piperidine-1-carbonyl]-4,4a,5,7,8,8a-hexahydropyrido[4,3-b][1,4]oxazin-3-one] | 0.022 µM |
| O=C1CO[C@H]2CCN(C(=O)N3CC(C#Cc4c(F)cccc4F)C3)C[C@H]2N1 [Example 159, (4aR,8aS)-6-(3-((2,6-Difluorophenyl)ethynyl)azetidine-1-carbonyl)hexahydro-2H-pyrido[4,3-b][1,4]oxazin-3(4H)-one] | 0.034 µM |
| CC1(C#Cc2ccc(Cl)cc2Cl)CCN(C(=O)N2CC[C@@H]3OCC(=O)N[C@@H]3C2)CC1 [Example 196, (4aR,8aS)-6-(4-((2,4-Dichlorophenyl)ethynyl)-4-methylpiperidine-1-carbonyl)hexahydro-2H-pyrido[4,3-b][1,4]oxazin-3(4H)-one] | 0.092 µM |
| O=C1CO[C@H]2CCN(C(=O)N3CCC(C#Cc4ncccc4Cl)CC3)C[C@H]2N1 [Example 127, (+)-(4aR,8aS)-6-[4-[2-(3-Chloropyridin-2-yl)ethynyl]piperidine-1-carbonyl]-4,4a,5,7,8,8a-hexahydropyrido[4,3-b][1,4]oxazin-3-one] | 0.308 µM |
| O=C1CO[C@H]2CCN(C(=O)N3CC(C#Cc4ccc(C5(O)CC5)cc4)C3)C[C@H]2N1 [Example 180, (4aR,8aS)-6-[3-[2-[4-(1-Hydroxycyclopropyl)phenyl]ethynyl]azetidine-1-carbonyl]-4,4a,5,7,8,8a-hexahydropyrido[4,3-b][1,4]oxazin-3-one] | 0.038 µM |
| Cc1ccccc1C#CC1CCN(C(=O)N2CC[C@@H]3OCC(=O)N[C@@H]3C2)CC1 [Example 194, (4aR,8aS)-6-(4-(o-Tolylethynyl)piperidine-1-carbonyl)hexahydro-2H-pyrido[4,3-b][1,4]oxazin-3(4H)-one] | 0.031 µM |
| O=C1CO[C@H]2CCN(C(=O)N3CCC(C(NCc4cccc(C(F)(F)F)c4)C(F)(F)F)CC3)C[C@H]2N1 (stereo partly drawn) [Example 107, (4aR,8aS)-6-[4-[2,2,2-Trifluoro-1-[[3-(trifluoromethyl)phenyl]methylamino]ethyl]piperidine-1-carbonyl]-4,4a,5,7,8,8a-hexahydropyrido[4,3-b][1,4]oxazin-3-one] | 0.055 µM |
| O=C1CO[C@H]2CCN(C(=O)N3CC(C[S+]([O-])c4ccc(C(F)(F)F)cc4Cl)C3)C[C@H]2N1 (single isomer, unassigned) [Example 155] | 1.98 µM |
| O=C1CO[C@H]2CCN(C(=O)N3CC(CNC(c4ccc(F)cc4)C(F)(F)F)C3)C[C@H]2N1 (stereo partly drawn) [Example 106, (4aR,8aS)-6-[3-[[[2,2,2-Trifluoro-1-(4-fluorophenyl)ethyl]amino]methyl]azetidine-1-carbonyl]-4,4a,5,7,8,8a-hexahydropyrido[4,3-b][1,4]oxazin-3-one] | 0.264 µM |
| COc1ccccc1C#CC1CCN(C(=O)N2CC[C@@H]3OCC(=O)N[C@@H]3C2)CC1 [Example 193, (4aR,8aS)-6-(4-((2-Methoxyphenyl)ethynyl)piperidine-1carbonyl)hexahydro-2H-pyrido[4,3-b][1,4]oxazin-3(4H)-one] | 0.086 µM |
| O=C1CO[C@H]2CCN(C(=O)N3CC(C[S+]([O-])c4ccc(C(F)(F)F)cc4Cl)C3)C[C@H]2N1 (single isomer, unassigned) [Example 154] | 0.307 µM |
| O=C1CO[C@H]2CCN(C(=O)N3CC(C[S+]([O-])c4ccc(C(F)(F)F)cc4Cl)C3)C[C@H]2N1 (mixture of isomers) [Example 153, (4aR,8aS)-6-[3-[[2-Chloro-4-(trifluoromethyl)phenyl]sulfinylmethyl]azetidine-1-carbonyl]-4,4a,5,7,8,8a-hexahydropyrido[4,3-b][1,4]oxazin-3-one] | 0.318 µM |

Stronger by IC50, values ahead:

| IC50 | Structure (SMILES) |
| --- | --- |
| 0.018 µM | O=C1CO[C@H]2CCN(C(=O)N3CC(C#Cc4ccc(Cl)s4)C3)C[C@H]2N1 [Example 187, (4aR,8aS)-6-[3-[2-(5-Chlorothiophen-2-yl)ethynyl]azetidine-1-carbonyl]-4,4a,5,7,8,8a-hexahydropyrido[4,3-b][1,4]oxazin-3-one] |
| 0.014 µM | O=C1CO[C@H]2CCN(C(=O)N3CC(C#Cc4ccccc4C(F)F)C3)C[C@H]2N1 [Example 182, (4aR,8aS)-6-[3-[2-[2-(Difluoromethyl)phenyl]ethynyl]azetidine-1-carbonyl]-4,4a,5,7,8,8a-hexahydropyrido[4,3-b][1,4]oxazin-3-one] |
| 0.013 µM | O=C1CO[C@H]2CCN(C(=O)N3CC(C#Cc4ccc(F)cc4Cl)C3)C[C@H]2N1 [Example 135, (+)-(4aR,8aS)-6-[3-[2-(2-Chloro-4-fluorophenyl)ethynyl]azetidine-1-carbonyl]-4,4a,5,7,8,8a-hexahydropyrido[4,3-b][1,4]oxazin-3-one] |
| 0.012 µM | O=C1CO[C@H]2CCN(C(=O)N3CC(CNC(c4ccccc4Cl)C(F)(F)F)C3)C[C@H]2N1 (stereo partly drawn) [Example 70, (4aR,8aS)-6-(3-(((1-(2-Chlorophenyl)-2,2,2-trifluoroethyl)amino)methyl)azetidine-1-carbonyl)hexahydro-2H-pyrido[4,3-b][1,4]oxazin-3(4H)-one] |
| 0.008 µM | O=C1CO[C@H]2CCN(C(=O)N3CC(CNC(c4ccc(Cl)cc4Cl)C(F)(F)F)C3)C[C@H]2N1 (stereo partly drawn) [Example 69, (4aR,8aS)-6-(3-(((1-(2,4-Dichlorophenyl)-2,2,2-trifluoroethyl)amino)methyl)azetidine-1-carbonyl)hexahydro-2H-pyrido[4,3-b][1,4]oxazin-3(4H)-one] |
| 0.006 µM | Cc1c(F)cccc1C#CC1CN(C(=O)N2CC[C@@H]3OCC(=O)N[C@@H]3C2)C1 [Example 168, (4aR,8aS)-6-[3-[2-(3-Fluoro-2-methylphenyl)ethynyl]azetidine-1-carbonyl]-4,4a,5,7,8,8a-hexahydropyrido[4,3-b][1,4]oxazin-3-one] |
| 0.005 µM | O=C1CO[C@H]2CCN(C(=O)N3CC(C#Cc4c(F)cccc4Cl)C3)C[C@H]2N1 [Example 161, (4aR,8aS)-6-(3-((2-Chloro-6-fluorophenyl)ethynyl)azetidine-1-carbonyl)hexahydro-2H-pyrido[4,3-b][1,4]oxazin-3(4H)-one] |
| 0.004 µM | Cc1cccc(C)c1C#CC1CN(C(=O)N2CC[C@@H]3OCC(=O)N[C@@H]3C2)C1 [Example 169, (4aR,8aS)-6-[3-[2-(2,6-Dimethylphenyl)ethynyl]azetidine-1-carbonyl]-4,4a,5,7,8,8a-hexahydropyrido[4,3-b][1,4]oxazin-3-one] |
| 0.001 µM | O=C1CO[C@H]2CCN(C(=O)N3CC(C#Cc4ccc(C5CC5)cc4Cl)C3)C[C@H]2N1 [Example 162, (4aR,8aS)-6-(3-((2-Chloro-4-cyclopropylphenyl)ethynyl)azetidine-1-carbonyl)hexahydro-2H-pyrido[4,3-b][1,4]oxazin-3(4H)-one] |
